ChEMBL document CHEMBL3862026, “Synthesis and biological evaluation of ranitidine analogs as multiple-target-directed cognitive enhancers for the treatment of Alzheimer's disease” (Bioorg Med Chem Lett, 2016)

How the values were obtained:
Acetylcholinesterase = Acetylcholinesterase (Electrophorus electricus, UniProt O42275); test: Inhibition of electric eel AChE using acetylthiocholine as substrate preincubated for 8 mins followed by substrate addition by Ellman's method
Cholinesterase = Cholinesterase (Equus caballus, UniProt P81908); test: Inhibition of equine serum BuChE using butyrylthiocholine as substrate preincubated for 8 mins followed by substrate addition by Ellman's method
[1] = target: T1, Muscarinic acetylcholine receptor M1 (Rattus norvegicus) (UniProt P08482); test: Displacement of [3H]QNB from muscarinic M1 receptor in rat brain homogenates at 1 uM after 60 mins relative to control; type: tissue-based
T1 sequence (whole entry): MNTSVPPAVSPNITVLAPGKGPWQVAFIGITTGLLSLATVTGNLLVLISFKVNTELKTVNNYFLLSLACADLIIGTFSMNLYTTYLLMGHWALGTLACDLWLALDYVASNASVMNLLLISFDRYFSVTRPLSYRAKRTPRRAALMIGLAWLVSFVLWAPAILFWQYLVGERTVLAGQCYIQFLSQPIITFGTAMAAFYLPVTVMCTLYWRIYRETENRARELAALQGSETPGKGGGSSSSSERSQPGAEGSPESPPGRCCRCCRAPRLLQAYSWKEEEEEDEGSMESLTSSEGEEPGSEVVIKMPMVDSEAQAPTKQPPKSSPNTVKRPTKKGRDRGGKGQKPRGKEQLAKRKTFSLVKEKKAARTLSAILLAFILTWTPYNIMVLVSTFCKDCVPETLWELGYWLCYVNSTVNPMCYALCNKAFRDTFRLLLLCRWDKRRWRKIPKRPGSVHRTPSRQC

[2] = target: T2, Muscarinic acetylcholine receptor M2 (Rattus norvegicus) (UniProt P10980); test: Displacement of [3H]QNB from muscarinic M2 receptor in rat brain homogenates at 1 uM after 60 mins relative to control; type: tissue-based
T2 sequence (whole entry): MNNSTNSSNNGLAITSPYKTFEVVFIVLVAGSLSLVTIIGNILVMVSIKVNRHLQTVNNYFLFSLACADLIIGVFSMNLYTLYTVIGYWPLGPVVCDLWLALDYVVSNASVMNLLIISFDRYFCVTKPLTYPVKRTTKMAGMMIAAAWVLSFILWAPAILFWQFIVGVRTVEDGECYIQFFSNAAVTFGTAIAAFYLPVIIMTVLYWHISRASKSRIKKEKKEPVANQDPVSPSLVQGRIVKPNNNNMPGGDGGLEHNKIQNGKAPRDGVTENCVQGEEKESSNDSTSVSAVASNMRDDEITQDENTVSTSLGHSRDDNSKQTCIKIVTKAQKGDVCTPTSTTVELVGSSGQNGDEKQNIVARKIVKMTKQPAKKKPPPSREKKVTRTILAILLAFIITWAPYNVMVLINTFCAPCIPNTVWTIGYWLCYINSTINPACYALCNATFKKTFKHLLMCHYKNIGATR

[3] = target: Muscarinic acetylcholine receptor M3 (Rattus norvegicus) (UniProt P08483); test: Displacement of [3H]QNB from muscarinic M3 receptor in rat brain homogenates at 1 uM after 60 mins relative to control; type: tissue-based
[4] = target: T3, Muscarinic acetylcholine receptor M4 (Rattus norvegicus) (UniProt P08485); test: Displacement of [3H]QNB from muscarinic M4 receptor in rat brain homogenates at 1 uM after 60 mins relative to control; type: tissue-based
T3 sequence (whole entry): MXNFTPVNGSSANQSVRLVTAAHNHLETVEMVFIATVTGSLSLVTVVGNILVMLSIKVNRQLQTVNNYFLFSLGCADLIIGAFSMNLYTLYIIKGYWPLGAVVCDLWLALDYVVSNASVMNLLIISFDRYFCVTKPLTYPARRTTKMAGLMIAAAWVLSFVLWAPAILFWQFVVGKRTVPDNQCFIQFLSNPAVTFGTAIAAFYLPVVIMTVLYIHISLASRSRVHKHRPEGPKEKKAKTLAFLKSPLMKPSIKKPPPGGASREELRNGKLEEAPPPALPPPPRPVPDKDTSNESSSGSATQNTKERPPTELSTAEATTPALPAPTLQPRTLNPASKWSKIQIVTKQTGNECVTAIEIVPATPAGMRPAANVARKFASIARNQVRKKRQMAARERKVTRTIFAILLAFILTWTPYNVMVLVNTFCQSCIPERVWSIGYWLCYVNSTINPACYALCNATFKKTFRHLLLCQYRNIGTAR

Chain of Cholinesterase (P81908 whole entry): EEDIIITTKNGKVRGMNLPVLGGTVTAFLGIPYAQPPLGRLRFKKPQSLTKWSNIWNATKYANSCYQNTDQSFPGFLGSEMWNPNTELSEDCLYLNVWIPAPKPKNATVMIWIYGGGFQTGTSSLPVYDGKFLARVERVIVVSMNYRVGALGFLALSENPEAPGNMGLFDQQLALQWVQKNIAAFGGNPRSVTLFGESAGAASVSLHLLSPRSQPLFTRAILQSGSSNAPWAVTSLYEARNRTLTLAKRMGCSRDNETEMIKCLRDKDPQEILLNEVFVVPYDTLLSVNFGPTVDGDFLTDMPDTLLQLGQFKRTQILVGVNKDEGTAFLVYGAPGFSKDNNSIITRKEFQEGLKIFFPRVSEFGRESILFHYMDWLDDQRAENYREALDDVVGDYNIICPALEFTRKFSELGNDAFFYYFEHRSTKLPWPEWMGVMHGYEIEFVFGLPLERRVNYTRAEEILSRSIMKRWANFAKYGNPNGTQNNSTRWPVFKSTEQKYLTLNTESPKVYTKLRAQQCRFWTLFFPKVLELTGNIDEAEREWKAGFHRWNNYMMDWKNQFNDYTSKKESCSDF
Chain of Acetylcholinesterase (O42275 whole entry): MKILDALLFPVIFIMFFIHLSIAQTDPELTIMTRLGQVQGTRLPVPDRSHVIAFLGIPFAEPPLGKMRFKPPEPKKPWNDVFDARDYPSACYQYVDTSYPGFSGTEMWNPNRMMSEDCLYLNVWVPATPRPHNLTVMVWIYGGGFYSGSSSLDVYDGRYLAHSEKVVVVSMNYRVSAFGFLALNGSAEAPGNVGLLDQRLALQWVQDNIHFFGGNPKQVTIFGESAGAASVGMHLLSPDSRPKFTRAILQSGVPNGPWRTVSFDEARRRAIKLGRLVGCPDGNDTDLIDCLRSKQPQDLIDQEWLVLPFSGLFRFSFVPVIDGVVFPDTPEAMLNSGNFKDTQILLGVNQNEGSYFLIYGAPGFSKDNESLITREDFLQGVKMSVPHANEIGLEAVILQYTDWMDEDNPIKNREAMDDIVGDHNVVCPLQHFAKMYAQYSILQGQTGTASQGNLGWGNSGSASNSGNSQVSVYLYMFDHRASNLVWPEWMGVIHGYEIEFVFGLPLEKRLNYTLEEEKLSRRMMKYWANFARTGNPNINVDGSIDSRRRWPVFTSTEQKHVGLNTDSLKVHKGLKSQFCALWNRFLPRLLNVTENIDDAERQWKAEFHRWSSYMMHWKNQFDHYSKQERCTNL
Chain of Muscarinic acetylcholine receptor M3 (Rattus norvegicus) (P08483 whole entry, looked up): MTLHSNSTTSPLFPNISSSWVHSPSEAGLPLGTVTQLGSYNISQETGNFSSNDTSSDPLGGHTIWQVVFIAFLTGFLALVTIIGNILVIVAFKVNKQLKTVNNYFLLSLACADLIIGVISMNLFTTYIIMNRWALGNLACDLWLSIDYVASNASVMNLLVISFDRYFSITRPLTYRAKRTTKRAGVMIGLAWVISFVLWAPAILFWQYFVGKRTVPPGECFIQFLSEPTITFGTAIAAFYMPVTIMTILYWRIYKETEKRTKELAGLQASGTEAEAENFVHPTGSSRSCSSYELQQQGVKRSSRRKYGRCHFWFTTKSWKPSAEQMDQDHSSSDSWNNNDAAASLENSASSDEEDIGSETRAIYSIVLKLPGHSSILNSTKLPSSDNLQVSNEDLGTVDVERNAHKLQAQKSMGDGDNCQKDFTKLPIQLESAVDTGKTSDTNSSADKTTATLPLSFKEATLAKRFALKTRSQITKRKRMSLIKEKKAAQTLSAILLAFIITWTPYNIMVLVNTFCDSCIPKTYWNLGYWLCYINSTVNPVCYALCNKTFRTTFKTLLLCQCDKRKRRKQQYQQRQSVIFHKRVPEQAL

| SMILES | IC50 (Acetylcholinesterase) | IC50 (Cholinesterase) | inhibition [1] | inhibition [2] | inhibition [3] | inhibition [4] |
| --- | --- | --- | --- | --- | --- | --- |
| CN(C)Cc1ccc(CSCCNc2ncccc2C#N)o1 | 5.34 µM | 8.36 µM | – | – | – | – |
| CN(C)Cc1ccc(CSCCN2C(=O)c3cccc4cc([N+](=O)[O-])cc(c34)C2=O)o1 | 0.15 µM | 8.01 µM | – | – | – | – |
| CN(C)Cc1ccc(CSCCNc2nc(N)n[nH]2)o1 | > 50 µM | > 50 µM | 57.4% | 71.3% | 30.1% | 43.6% |
| CC1CC(=O)N(CCSCc2ccc(CN(C)C)o2)C1=O (stereo not given) | 33.4 µM | > 50 µM | – | – | – | – |
| CN(C)Cc1ccc(CSCCN2C(=O)c3ccccc3C2=O)o1 | 3.57 µM | 14.5 µM | – | – | – | – |
| CN(C)Cc1ccc(CSCCN2C(=O)CCC2=O)o1 | 11.8 µM | > 50 µM | – | – | – | – |
| CN(C)Cc1ccc(CSCCNc2nc(N)no2)o1 | > 50 µM | > 50 µM | 69.9% | 72.8% | 49.8% | 42.7% |
| CN(C)Cc1ccc(CSCCNC(=O)Cc2ccccc2Nc2c(Cl)cccc2Cl)o1 | – | 7.65 µM | 60.1% | 27.4% | 43.5% | 47.3% |
| Cc1nnc(NCCSCc2ccc(CN(C)C)o2)c([N+](=O)[O-])c1-c1ccccc1 | 0.72 µM | – | 60% | 40% | 52% | 37% |
| Cc1cccc(Nc2ccccc2C(=O)NCCSCc2ccc(CN(C)C)o2)c1C | > 50 µM | > 50 µM | 77.4% | 50.8% | 69.6% | 33.8% |
| CN(C)Cc1ccc(CSCCN2C(=O)c3cccc4cccc(c34)C2=O)o1 | 1.27 µM | 7.21 µM | – | – | – | – |
| CS/C(=N\S(=O)(=O)c1ccc(C)cc1)NCCSCc1ccc(CN(C)C)o1 | > 50 µM | > 50 µM | 37.5% | – | 18.5% | 4.2% |
| Cc1cc([N+](=O)[O-])c(NCCSCc2ccc(CN(C)C)o2)nn1 | 0.68 µM | 28.4 µM | 79% | 78% | 46% | 57% |
| CN(C)Cc1ccc(CSCCNc2nncc(-c3ccccc3)c2[N+](=O)[O-])o1 | 0.46 µM | 22.7 µM | 40% | 37% | 27% | 18% |
| CN(C)Cc1ccc(CSCCN/C(=C/[N+](=O)[O-])N/N=C/c2ccccc2)o1 | 1.18 µM | 2.96 µM | 88.5% | 67% | 66.6% | 62.3% |
| CN(C)Cc1ccc(CSCCNc2ccc(Cl)nn2)o1 | 10.4 µM | > 50 µM | 25.2% | 9.8% | 2.3% | 7.7% |
| CN(C)Cc1ccc(CSCCNc2nnc(-c3ccccc3)c(-c3ccccc3)c2[N+](=O)[O-])o1 | 0.19 µM | 7.05 µM | 76% | 51% | 73% | 48% |
| CN(C)Cc1ccc(CSCCN/C(=C/[N+](=O)[O-])N2CCCCC2)o1 | 4.04 µM | 21.2 µM | 72.1% | 54% | 41.5% | 47.7% |
| CN(C)Cc1ccc(CSCCNc2nnc(-c3cccs3)c(-c3cccs3)c2[N+](=O)[O-])o1 | 0.35 µM | 2.28 µM | – | – | – | – |
| C=C1C(C)=NN/C(=C\[N+](=O)[O-])N1CCSCc1ccc(CN(C)C)o1 | 1.65 µM | 7.1 µM | 88.8% | 81% | 90.4% | 92.1% |
| Cc1nnc(NCCSCc2ccc(CN(C)C)o2)c([N+](=O)[O-])c1C | 2.72 µM | – | 74% | 63% | 48% | 67% |
| CN(C)Cc1ccc(CSCCNc2nnccc2[N+](=O)[O-])o1 | 0.47 µM | – | 80% | 97% | 32% | 74% |
| Cc1c(-c2ccccc2)nnc(NCCSCc2ccc(CN(C)C)o2)c1[N+](=O)[O-] | 0.16 µM | 3.71 µM | 84% | 72% | 63% | 58% |
| Cc1ccc(S(=O)(=O)NCCSCc2ccc(CN(C)C)o2)cc1 | > 50 µM | 47.2 µM | – | – | – | – |
| CN(C)Cc1ccc(CSCCN2C(=O)c3ccc([N+](=O)[O-])cc3C2=O)o1 | 46 µM | > 50 µM | – | – | – | – |
| CCc1nnc(NCCSCc2ccc(CN(C)C)o2)c([N+](=O)[O-])c1CC | 2.54 µM | 18.8 µM | – | – | – | – |
| CN(C)Cc1ccc(CSCCNc2ncccn2)o1 | 16.2 µM | 7.65 µM | 56.2% | 50.8% | 24.3% | 24.9% |
| CN(C)Cc1ccc(CSCCNC(=O)c2ccccc2-c2ccccc2C(=O)O)o1 | > 50 µM | > 50 µM | – | – | – | – |
| CN(C)Cc1ccc(CSCCNc2nnc(-c3ccccc3)cc2[N+](=O)[O-])o1 | 0.26 µM | 4.46 µM | 40% | 34% | 38% | 16% |
